Measured values: patent EP2906547B2, “COSMETIC COMPOSITIONS CONTAINING AT LEAST ONE HYDROTROPE AND AT LEAST ONE ACTIVE COMPOUND” (priority 2012, dated 2014)
Converted amounts (≈) assume the structure as drawn. Read-outs that look alike come from different tables or passages of the source. One block for each compound: values may come before it.

Tests used:
[1] = physchem
Description: Another aspect of the text discloses a method for preparing the aqueous compositions comprising including in the composition at least one phenolic compound and at least one hydrotrope in an amount sufficient to solubilize the phenolic compound, such as a polyphenol, in water. A hydrotrope solution is prepared by completely dissolving one or more hydrotropic agents into water. At least one phenolic compound is then added in and mixed using a stirring bar or any other mixer. […] Everything is prepared at room temperature to keep the stability of the phenolic compound(s).
Everything is prepared at room temperature to keep the stability of the phenolic compounds.

[2] = Stability of solutions on dilution in water
[3] = Solubility of baicalin in water as a function of pH; assay type: physicochemical; details: for solubility: water
[4] = Solubility of adenosine in water with and without hydrotropes
[5] = 5% nicotinamide and 5% caffeine, room temperature
[6] = 5% nicotinamide, 5% caffeine, water

Solubility in water with hydrotropes [1, 5]: >1 % (w/w)
solubility thermodynamic ([1]; water): < 1 mg/mL
Compound: O=C1c2c(O)cc(O)cc2O[C@H](c2ccc(O)c(O)c2)[C@H]1O [Taxifolin]

Compound: O=C(O)[C@H]1O[C@@H](Oc2cc3oc(-c4ccccc4)cc(=O)c3c(O)c2O)[C@H](O)[C@@H](O)[C@@H]1O [Baicalin]
water solubility ([1]; 2% caffeine in water): 0.11%
Solubility in water with hydrotropes [1, 6]: >1 % (w/w)
amount solubilized in water [1, 6]: approximately 1%
solubility thermodynamic ([1]; water): < 0.1 mg/mL
stability of dilution in water ([2]; hydrotrope solution diluted in water): still stable
stability of dilution in water ([2]; solution in organic solvent (e.g. PEG-4) diluted in water, crystallization or precipitation occurs): not stable any more
pH at which degradation happens ([3]; in water): > 5
solubility ([3]; pH 3, water, in water, pH 3, read-out: Solubility): 0.016 mg/mL (≈ 35.8 µM)
solubility ([3]; pH 3.5, water, in water, pH 3.5, read-out: Solubility): 0.021 mg/mL (≈ 47 µM)
solubility ([3]; pH 4, water, in water, pH 4, read-out: Solubility): 0.04 mg/mL (≈ 89.6 µM)
solubility ([3]; pH 4.5, water, in water, pH 4.5, read-out: Solubility): 0.084 mg/mL (≈ 188 µM)
solubility ([3]; pH 4.5, water, without hydrotrope, natural pH -4.5, read-out: solubility in water): < 0.1 mg/mL
solubility ([3]; pH 5, water, in water, pH 5, read-out: Solubility): 0.35 mg/mL (≈ 784 µM)

Solubility in water without hydrotropes ([1]; water): <0.05 % (w/w)
Compound: COc1ccc([C@@H]2CC(=O)c3c(O)cc(O[C@@H]4O[C@H](CO)[C@@H](O)[C@H](O)[C@H]4O[C@@H]4O[C@@H](C)[C@H](O)[C@@H](O)[C@H]4O)cc3O2)cc1O [Neohesperidin]

Solubility in water with hydrotropes [4, 5]: >3 %(w/w)
solubility thermodynamic ([4]; water): < 5 mg/mL
Compound: Nc1ncnc2c1ncn2[C@@H]1O[C@H](CO)[C@@H](O)[C@H]1O [Adenosine]

Solubility in water with hydrotropes [1, 6]: >0.75 % (w/w)
solubility thermodynamic ([1]; water): < 0.05 mg/mL
Compound: Oc1ccc(C=Cc2cc(O)cc(O)c2)cc1 [Resveratrol]

Solubility in water with hydrotropes [1, 5]: >0.01 % (w/w)
solubility thermodynamic ([1]; water): < 0.01 mg/mL
Compound: O=c1oc2c(O)c(O)cc3c(=O)oc4c(O)c(O)cc1c4c23 [Ellagic acid]
